Measurements from ChEMBL document CHEMBL3751686, “Novel benzoxepine-1,2,3-triazole hybrids: synthesis and pharmacological evaluation as potential antibacterial and anticancer agents” (Medchemcomm, 2015).
≈ marks a conversion by molar mass, not a printed value. Calls of active or inactive are those of the source. No cut-off for these calls is given here.

Assays:
Klebsiella pneumoniae [1] = assay: Antibacterial activity against Klebsiella pneumoniae at 0.4 mg/50 uL incubated overnight by agar-well diffusion analysis; assay type: functional
Escherichia coli [2] = assay: Antibacterial activity against Escherichia coli MTCC 1563 at 0.4 mg/50 uL incubated overnight by agar-well diffusion analysis; assay type: functional
Pseudomonas aeruginosa [3] = assay: Antibacterial activity against Pseudomonas aeruginosa MTCC 6642 at 0.4 mg/50 uL incubated overnight by agar-well diffusion analysis; assay type: functional
Staphylococcus aureus [4] = assay: Antibacterial activity against Staphylococcus aureus at 0.4 mg/50 uL incubated overnight by agar-well diffusion analysis; assay type: functional
Klebsiella pneumoniae [5] = assay: Antibacterial activity against Klebsiella pneumoniae at 0.04 mg/50 uL incubated overnight by agar-well diffusion analysis; assay type: functional
Pseudomonas aeruginosa [6] = assay: Antibacterial activity against Pseudomonas aeruginosa MTCC 6642 at 0.04 mg/50 uL incubated overnight by agar-well diffusion analysis; assay type: functional
Staphylococcus aureus [7] = assay: Antibacterial activity against Staphylococcus aureus at 0.04 mg/50 uL incubated overnight by agar-well diffusion analysis; assay type: functional
Escherichia coli [8] = assay: Antibacterial activity against Escherichia coli MTCC 1563 at 0.04 mg/50 uL incubated overnight by agar-well diffusion analysis; assay type: functional
HEK293 = assay: Cytotoxicity against HEK293 cells after 48 hrs by SRB assay; assay type: cell-based; details: human, hek293, 48 h
[9] = Cytotoxicity against human HCT15 cells assessed as cell growth at 80 ug/ml after 48 hrs by SRB assay; assay type: functional; details: HCT-15, 48 h, read-out: Activity
NCI-H226 [10] = assay: Cytotoxicity against human NCI-H226 cells assessed as cell growth at 80 ug/ml after 48 hrs by SRB assay; assay type: functional; details: NCI-H226, 48 h, read-out: Activity
[11] = Cytotoxicity against human HCT15 cells after 48 hrs by SRB assay; assay type: functional; details: HCT-15, 48 h; for CC50: read-out: LC50 (the source's name)
NCI-H226 [12] = assay: Cytotoxicity against human NCI-H226 cells after 48 hrs by SRB assay; assay type: functional; details: NCI-H226, 48 h

| Compound | diameter of the inhibition zone (DIZ) (Klebsiella pneumoniae [1]) | diameter of the inhibition zone (DIZ) (Escherichia coli [2]) | diameter of the inhibition zone (DIZ) (Pseudomonas aeruginosa [3]) [mm] | diameter of the inhibition zone (DIZ) (Staphylococcus aureus [4]) [mm] | also measured |
| --- | --- | --- | --- | --- | --- |
| Cc1cccc2c1OCCC(Cn1cc(-c3ccccc3)nn1)=C2Cl | 9 mm | 25 mm | 11 | – | – |
| ClC1=C(Cn2cc(COc3cccc4cccnc34)nn2)CCOc2ccccc21 | inactive | 11 mm | – | 8 | – |
| CCn1cc(C(=O)O)c(=O)c2cc(F)c(N3CCN(C)CC3)cc21 [PEFLOXACIN] | – | – | – | – | diameter of the inhibition zone (DIZ) (Klebsiella pneumoniae [5]): 35 mm; diameter of the inhibition zone (DIZ) (Pseudomonas aeruginosa [6]): 28 mm; diameter of the inhibition zone (DIZ) (Staphylococcus aureus [7]): 36 mm; diameter of the inhibition zone (DIZ) (Escherichia coli [8]): 31 mm |
| Cc1ccc(-c2cn(CC3=C(Cl)c4ccccc4OCC3)nn2)cc1 | – | 9 mm | 12 | 10 | Activity (HEK293): Non-toxic; growth at 80 µg/mL [9]: 55% |
| Cc1cccc2c1OCCC(Cn1cc(COc3ccc4c(C)cc(=O)oc4c3)nn1)=C2Cl | – | – | 11 | 11 | – |
| Cc1ccc(-c2cn(CC3=C(Cl)c4cc(Cl)ccc4OCC3)nn2)cc1 | 10 mm | 13 mm | 12 | – | – |
| Cc1ccc2c(c1)C(Cl)=C(Cn1cc(COc3ccc4c(C)cc(=O)oc4c3)nn1)CCO2 | 12 mm | inactive | 16 | – | – |
| Cc1ccc(-c2cn(CC3=C(Cl)c4cc(C)ccc4OCC3)nn2)cc1 | – | 10 mm | 10 | 8 | – |
| ClC1=C(Cn2cc(-c3ccccc3)nn2)CCOc2ccccc21 | 18 mm | inactive | 13 | 7 | Activity (HEK293): Non-toxic; growth at 80 µg/mL (NCI-H226 [10]): 73%; growth at 80 µg/mL [9]: 61% |
| O=c1ccc2ccc(OCc3cn(CC4=C(Cl)c5ccccc5OCC4)nn3)cc2o1 | 11 mm | inactive | 12 | 10 | – |
| Cc1cccc2c1OCCC(Cn1cc(COc3ccc4ccc(=O)oc4c3)nn1)=C2Cl | inactive | – | 14 | 12 | Activity (HEK293): Non-toxic; growth at 80 µg/mL [9]: 86% |
| Cc1cc(=O)oc2cc(OCc3cn(CC4=C(Cl)c5cc(Cl)ccc5OCC4)nn3)ccc12 | – | 14 mm | 18 | 12 | – |
| Cc1cccc2c1OCCC(Cn1cc(COc3cccc4cccnc34)nn1)=C2Cl | – | – | 18 | 10 | – |
| Cc1cc(=O)oc2cc(OCc3cn(CC4=C(Cl)c5ccccc5OCC4)nn3)ccc12 | 7 mm | 11 mm | 12 | 11 | – |
| O=c1ccc2ccc(OCc3cn(CC4=C(Cl)c5cc(Cl)ccc5OCC4)nn3)cc2o1 | 12 mm | inactive | 11 | 10 | – |
| Cc1ccc2c(c1)C(Cl)=C(Cn1cc(-c3ccccc3)nn1)CCO2 | 9 mm | – | 16 | – | – |
| ClC1=C(Cn2cc(COc3cccc4cccnc34)nn2)CCOc2ccc(Cl)cc21 | 12 mm | 10 mm | 10 | 12 | – |
| COc1cccc2c1C(=O)c1c(O)c3c(c(O)c1C2=O)C[C@@](O)(C(=O)CO)C[C@@H]3O[C@H]1C[C@H](N)[C@H](O)[C@H](C)O1 [DOXORUBICIN] | – | – | – | – | GI50 [11]: < 10 µg/mL; TGI [11]: 36.1 µg/mL (≈ 66.4 µM); CC50 [11]: > 80 µg/mL; GI50 (NCI-H226 [12]): < 10 µg/mL; TGI (NCI-H226 [12]): < 10 µg/mL |
| Cc1ccc(-c2cn(CC3=C(Cl)c4cccc(C)c4OCC3)nn2)cc1 | 17 mm | 20 mm | 15 | 7 | Activity (HEK293): Non-toxic; growth at 80 µg/mL [9]: 58% |
| Cc1ccc2c(c1)C(Cl)=C(Cn1cc(COc3ccc4ccc(=O)oc4c3)nn1)CCO2 | – | 16 mm | 18 | 10 | Activity (HEK293): Non-toxic; growth at 80 µg/mL (NCI-H226 [10]): 8%; GI50 [11]: 52.5 µg/mL (≈ 117 µM); TGI [11]: > 80 µg/mL; CC50 [11]: > 80 µg/mL; growth at 80 µg/mL [9]: 33%; GI50 (NCI-H226 [12]): 41.3 µg/mL (≈ 91.8 µM); LC50 (NCI-H226 [12]): > 80 µg/mL; TGI (NCI-H226 [12]): > 80 µg/mL |
